In patent US5372816A, “Trehalostatin and process for the preparation thereof” (Suntory Limited, priority 1989, dated 1994):

How the values were obtained:
[1] = system: Trehalase (Aldrichina grahami); assay: Enzyme inhibition spectrum: trehalase (Aldrichina grahami); type: biochemical
Protocol: 10 μl of an inhibitor solution and 10 μl of a trehalase solution (trehalase collected from Aldrichina grahami) were mixed. After 5 minutes incubation at 37° C., 80 μl of a 5 mM trehalose and 50 mM phosphate buffer solution (pH 6.5) was added, followed by an additional one-hour incubation at 37° C. Thereafter, 10 μl of a 50% trichloroacetic acid solution was added to terminate the reaction. Glucose formed in the reaction solution was determined by a new blood sugar test manufactured by Boehringer-Mannheim Ltd. The amount of the enzyme was such that absorbance of the wavelength ([…]) used in the glucose determination when conducted according to the above method without adding the inhibitor would become 1.0. The Trehalostatin concentration which can achieve 50% inhibition of enzyme (trehalase) activity in the above determination method was expressed as 1 unit/ml.
Each enzyme (200 μl) is incubated with Trehalostatin (0.01-50 μg) in 0.05 M acetate (pH 5-6) or phosphate (pH 6-7) buffer solution at 37° C. for 5 minutes. Then 20 μl of the resulting solution is collected and added with a substrate to a final concentration shown in the Table, making the total volume of the solution 100 μl. […]
(§1) (A) The glucose produced was determined by the new blood sugar test devised by Boehringer-Mannheim Ltd.

[2] = system: Trehalase (Chaetomium aureum); assay: Enzyme inhibition spectrum: trehalase (Chaetomium aureum); type: biochemical; conditions: enzyme 15 μg; pH 5.5, 5 mM trehalase; measuring method A
Protocol: (§2) Each enzyme (200 μl) is incubated with Trehalostatin (0.01-50 μg) in 0.05 M acetate (pH 5-6) or phosphate (pH 6-7) buffer solution at 37° C. for 5 minutes. Then 20 μl of the resulting solution is collected and added with a substrate to a final concentration shown in the Table, making the total volume of the solution 100 μl. The mixture is incubated at 37° C. for 10 minutes and then incubated in a boiling water bath for 3 minutes to terminate the reaction.
(§3) Determination of activity was made by measuring the increase of the product in the reaction system according to the following methods A-C.
(§4) The quantity of Trehalostatin which can effect 50% inhibition of enzyme activity under the above-described conditions was indicated as ID50.
as §1

[3] = target: T1, Trehalase (bovine colonic mucosa) (Bos taurus, UniProt E1B8N4); assay: Enzyme inhibition spectrum: trehalase (bovine colonic mucosa); type: biochemical; conditions: enzyme 2500 μg; pH 5.5, 5 mM trehalase; measuring method A
T1 construct: mucosal acetone powder Sigma (M2766); purchased Sigma M2766; host or cells: bovine colonic mucosa, acetone powder
T1 sequence (E1B8N4 24-579): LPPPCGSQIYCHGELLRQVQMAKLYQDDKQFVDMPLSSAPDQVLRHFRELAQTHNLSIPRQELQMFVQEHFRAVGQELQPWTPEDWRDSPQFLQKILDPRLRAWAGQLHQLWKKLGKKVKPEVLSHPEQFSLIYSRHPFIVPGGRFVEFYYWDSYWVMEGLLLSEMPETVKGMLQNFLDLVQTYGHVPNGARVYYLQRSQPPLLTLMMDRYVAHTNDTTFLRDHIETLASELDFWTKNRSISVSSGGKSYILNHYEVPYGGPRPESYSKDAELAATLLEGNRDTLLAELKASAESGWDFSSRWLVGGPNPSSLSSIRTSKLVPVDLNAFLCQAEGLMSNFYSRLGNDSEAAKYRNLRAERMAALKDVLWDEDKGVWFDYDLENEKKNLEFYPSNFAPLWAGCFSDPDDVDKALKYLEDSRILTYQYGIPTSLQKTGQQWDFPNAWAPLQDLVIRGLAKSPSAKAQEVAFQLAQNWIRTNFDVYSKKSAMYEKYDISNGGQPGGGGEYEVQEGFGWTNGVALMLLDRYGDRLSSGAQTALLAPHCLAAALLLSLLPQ
Protocol: as §2, §3, §4, §1

Trehalase (swine kidney) = target: T2, Trehalase (swine kidney) (Sus scrofa, UniProt I3LIR5); assay: Enzyme inhibition spectrum: trehalase (swine kidney); type: biochemical; conditions: enzyme 1.1 unit (nmol glucose/min); pH 6.5, 5 mM trehalase; measuring method A
T2 construct: purchased Sigma M8778; host or cells: swine kidney
T2 sequence (I3LIR5 24-583): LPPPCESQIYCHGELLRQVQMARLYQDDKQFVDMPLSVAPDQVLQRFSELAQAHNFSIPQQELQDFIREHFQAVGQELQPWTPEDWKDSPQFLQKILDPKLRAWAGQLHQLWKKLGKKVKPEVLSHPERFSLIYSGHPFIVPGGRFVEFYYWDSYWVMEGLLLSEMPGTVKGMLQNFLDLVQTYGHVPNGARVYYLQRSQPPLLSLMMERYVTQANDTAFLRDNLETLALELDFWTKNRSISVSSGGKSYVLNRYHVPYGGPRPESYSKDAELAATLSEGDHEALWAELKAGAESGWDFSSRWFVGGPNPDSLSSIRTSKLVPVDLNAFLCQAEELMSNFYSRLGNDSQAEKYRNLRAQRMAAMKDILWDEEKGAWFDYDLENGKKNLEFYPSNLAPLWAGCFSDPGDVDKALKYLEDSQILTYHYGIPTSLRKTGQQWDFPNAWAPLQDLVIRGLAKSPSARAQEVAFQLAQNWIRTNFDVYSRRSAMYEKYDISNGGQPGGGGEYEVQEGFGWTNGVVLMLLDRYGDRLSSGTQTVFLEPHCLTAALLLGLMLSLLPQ
Protocol: as §2, §3, §4, §1

α-glycosidase (yeast) = target: T3, α-glycosidase (yeast) (Saccharomyces cerevisiae, UniProt P53341); assay: Enzyme inhibition spectrum: α-glycosidase (yeast); type: biochemical; conditions: enzyme 1 μg; pH 7.1, 5 mM P-nitrophenyl glycoside; measuring method A
T3 construct: purchased TOYOBO Co., Ltd; host or cells: yeast
Protocol: as §2, §3, §4, §1

[4] = target: T4, β-glycosidase (Asp. aculeatus) (Aspergillus aculeatus, UniProt P48825); assay: Enzyme inhibition spectrum: β-glycosidase (Asp. aculeatus); type: biochemical; conditions: enzyme 15 μg; pH 5.0, 0.5% salicin; measuring method A
T4 construct: a crude enzyme (prepared by University of Osaka Prefecture); host or cells: Aspergillus aculeatus
Protocol: as §2, §3, §4, §1

Gluco amylase (almond) = assay: Enzyme inhibition spectrum: Gluco amylase (almond), salicin substrate; type: biochemical; design: key: ++: ID50 ≤ 1.0 μg; +: ID50 ≥ 1.0 μg; -: no inhibition; conditions: enzyme 10 μg; pH 5.0, 0.5% salicin; measuring method A
Protocol: as §2, §3, §4, §1

[5] = system: Gluco amylase (Rhizopus niveus); assay: Enzyme inhibition spectrum: Gluco amylase (Rhizopus niveus); type: biochemical; design: key: ++: ID50 ≤ 1.0 μg; +: ID50 ≥ 1.0 μg; -: no inhibition; conditions: enzyme 2 μg; pH 5.5, 0.5% starch; measuring method A
Protocol: as §2, §3, §4, §1

exo-β-1,3-glucanase = assay: Enzyme inhibition spectrum: exo-β-1,3-glucanase; type: biochemical; design: key: ++: ID50 ≤ 1.0 μg; +: ID50 ≥ 1.0 μg; -: no inhibition; conditions: enzyme 15 μg; pH 6.0, 0.1% laminarin; measuring method B
Protocol: as §2, §3, §4
(B) An amount of glucose produced was determined according to the method shown in D. R. Barras and B. A. Stone, Biochim. Biophys. Acta, 191, 329 (1969).

[6] = system: avicelase (Asp. aculeatus); assay: Enzyme inhibition spectrum: avicelase (Asp. aculeatus); type: biochemical; design: key: ++: ID50 ≤ 1.0 μg; +: ID50 ≥ 1.0 μg; -: no inhibition; conditions: enzyme 2000 μg; pH 5.0, 0.5% avicel; measuring method C
Protocol: as §2, §3, §4
(§5) (C) The increase of an amount of reducing sugar produced was measured according to the method shown in J. A. Thoma et al., The Enzyme, 3rd. ed., Ch. 5, pp. 115-189 (1971).

[7] = target: Bacterial saccharifying amylase (Bacillus subtilis, UniProt P00691); assay: Enzyme inhibition spectrum: bacterial saccharifying amylase; type: biochemical; design: key: ++: ID50 ≤ 1.0 μg; +: ID50 ≥ 1.0 μg; -: no inhibition; conditions: enzyme 4 μg; pH 5.0, 0.5% starch; measuring method C
Protocol: as §2, §3, §4, §5

[8] = target: Bacterial liquefying amylase (Bacillus amyloliquefaciens, UniProt P00692); assay: Enzyme inhibition spectrum: bacterial liquefying amylase; type: biochemical; design: key: ++: ID50 ≤ 1.0 μg; +: ID50 ≥ 1.0 μg; -: no inhibition; conditions: enzyme 0.4 μg; pH 5.0, 0.5% starch; measuring method C
Protocol: as §2, §3, §4, §5

β-amylase (sweet potato) = target: T5, β-amylase (sweet potato) (Ipomoea batatas, UniProt P10537); assay: Enzyme inhibition spectrum: β-amylase (sweet potato); type: biochemical; design: key: ++: ID50 ≤ 1.0 μg; +: ID50 ≥ 1.0 μg; -: no inhibition; conditions: enzyme 12.5 μg; pH 5.0, 0.5% starch; measuring method C
T5 construct: purchased Sigma; host or cells: sweet potato
Protocol: as §2, §3, §4, §5

[9] = system: Invertase (bovine colonic mucosa); assay: Enzyme inhibition spectrum: invertase (bovine colonic mucosa); type: biochemical; design: key: ++: ID50 ≤ 1.0 μg; +: ID50 ≥ 1.0 μg; -: no inhibition; conditions: enzyme 5000 μg; pH 6.0, 0.1% sucrose; measuring method A
Protocol: as §2, §3, §4, §1

Taka-amylase A (yeast) = target: T6, Taka-amylase A (yeast) (Saccharomyces cerevisiae, UniProt P00724); assay: Enzyme inhibition spectrum: Taka-amylase A (yeast), sucrose substrate; type: biochemical; design: key: ++: ID50 ≤ 1.0 μg; +: ID50 ≥ 1.0 μg; -: no inhibition; conditions: enzyme 100 μg; pH 5.5, 0.1% sucrose; measuring method A
T6 sequence (P00724 20-532): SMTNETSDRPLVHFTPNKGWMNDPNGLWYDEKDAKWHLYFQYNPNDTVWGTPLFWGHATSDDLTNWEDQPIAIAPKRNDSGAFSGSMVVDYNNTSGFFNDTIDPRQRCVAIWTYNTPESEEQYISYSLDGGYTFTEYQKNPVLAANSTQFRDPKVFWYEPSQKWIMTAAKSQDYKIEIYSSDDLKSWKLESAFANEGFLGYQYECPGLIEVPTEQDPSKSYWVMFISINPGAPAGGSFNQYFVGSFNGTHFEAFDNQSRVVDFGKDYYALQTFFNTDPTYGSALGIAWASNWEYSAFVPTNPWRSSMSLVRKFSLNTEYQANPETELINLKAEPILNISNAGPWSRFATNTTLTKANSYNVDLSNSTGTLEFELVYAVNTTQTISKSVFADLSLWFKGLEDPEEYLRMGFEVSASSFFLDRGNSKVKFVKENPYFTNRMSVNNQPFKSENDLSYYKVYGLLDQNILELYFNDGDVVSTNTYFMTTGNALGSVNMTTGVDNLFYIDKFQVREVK
Protocol: as §2, §3, §4, §1

Taka-amylase A = target: T7, Taka-amylase A (Aspergillus oryzae, UniProt P0C1B3); assay: Enzyme inhibition spectrum: Taka-amylase A, starch substrate; type: biochemical; design: key: ++: ID50 ≤ 1.0 μg; +: ID50 ≥ 1.0 μg; -: no inhibition; conditions: enzyme 0.5 μg; pH 5.5, 0.5% starch; measuring method printed 69
T7 construct: purchased SANKYO Co., Ltd
Protocol: as §2, §3, §4

[10] = system: Carboxymethyl-cellulase (Asp. aculeatus); assay: Enzyme inhibition spectrum: carboxymethyl-cellulase (Asp. aculeatus); type: biochemical; design: key: ++: ID50 ≤ 1.0 μg; +: ID50 ≥ 1.0 μg; -: no inhibition; conditions: enzyme 100 μg; pH 5.0, 0.5% CM cellulose; measuring method C
Protocol: as §2, §3, §4, §5

Isoamylase = target: T8, Isoamylase (Pseudomonas amyloderamosa, UniProt P10342); assay: Enzyme inhibition spectrum: isoamylase; type: biochemical; design: key: ++: ID50 ≤ 1.0 μg; +: ID50 ≥ 1.0 μg; -: no inhibition; conditions: enzyme 100 μg; pH 5.5, 0.5% starch; measuring method C
T8 construct: purchased Shin Nippon Kagaku Co., Ltd
T8 sequence (P10342 27-776): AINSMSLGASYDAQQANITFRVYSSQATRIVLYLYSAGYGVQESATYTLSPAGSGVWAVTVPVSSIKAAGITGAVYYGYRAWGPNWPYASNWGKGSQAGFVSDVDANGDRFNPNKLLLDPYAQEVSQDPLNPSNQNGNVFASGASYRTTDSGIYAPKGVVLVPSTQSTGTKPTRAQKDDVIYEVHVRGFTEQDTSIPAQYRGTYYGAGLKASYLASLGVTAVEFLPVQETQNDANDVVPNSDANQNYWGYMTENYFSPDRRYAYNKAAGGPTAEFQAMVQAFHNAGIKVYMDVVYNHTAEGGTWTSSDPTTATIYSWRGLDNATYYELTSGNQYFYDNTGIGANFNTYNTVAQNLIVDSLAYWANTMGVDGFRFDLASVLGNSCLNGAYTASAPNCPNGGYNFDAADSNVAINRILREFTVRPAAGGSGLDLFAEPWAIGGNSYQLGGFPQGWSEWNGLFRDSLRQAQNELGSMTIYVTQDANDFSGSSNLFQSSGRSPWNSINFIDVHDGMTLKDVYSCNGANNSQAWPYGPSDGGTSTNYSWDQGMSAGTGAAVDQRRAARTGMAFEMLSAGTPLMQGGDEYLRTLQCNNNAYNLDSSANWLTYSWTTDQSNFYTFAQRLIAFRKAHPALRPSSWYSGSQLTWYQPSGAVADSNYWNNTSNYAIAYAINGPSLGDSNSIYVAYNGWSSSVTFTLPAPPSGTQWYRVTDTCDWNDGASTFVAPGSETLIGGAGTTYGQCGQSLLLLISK
Protocol: as §2, §3, §4, §5

[11] = Solubility of Trehalostatin; type: physicochemical

Bacterial liquefying amylase, sequence (P00692 32-514): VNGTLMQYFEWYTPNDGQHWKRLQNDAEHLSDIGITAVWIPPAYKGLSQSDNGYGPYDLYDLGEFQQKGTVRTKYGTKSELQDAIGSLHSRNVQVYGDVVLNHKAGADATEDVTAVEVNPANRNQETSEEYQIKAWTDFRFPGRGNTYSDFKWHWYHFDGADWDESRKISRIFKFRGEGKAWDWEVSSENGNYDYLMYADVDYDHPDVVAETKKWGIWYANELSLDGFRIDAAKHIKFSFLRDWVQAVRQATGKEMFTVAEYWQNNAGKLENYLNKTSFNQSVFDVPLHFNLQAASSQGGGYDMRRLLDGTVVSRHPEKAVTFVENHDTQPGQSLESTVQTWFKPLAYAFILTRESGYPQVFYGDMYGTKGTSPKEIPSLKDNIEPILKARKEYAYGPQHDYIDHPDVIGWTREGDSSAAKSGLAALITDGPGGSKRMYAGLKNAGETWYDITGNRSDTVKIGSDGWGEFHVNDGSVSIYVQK
T4 sequence (P48825 20-860): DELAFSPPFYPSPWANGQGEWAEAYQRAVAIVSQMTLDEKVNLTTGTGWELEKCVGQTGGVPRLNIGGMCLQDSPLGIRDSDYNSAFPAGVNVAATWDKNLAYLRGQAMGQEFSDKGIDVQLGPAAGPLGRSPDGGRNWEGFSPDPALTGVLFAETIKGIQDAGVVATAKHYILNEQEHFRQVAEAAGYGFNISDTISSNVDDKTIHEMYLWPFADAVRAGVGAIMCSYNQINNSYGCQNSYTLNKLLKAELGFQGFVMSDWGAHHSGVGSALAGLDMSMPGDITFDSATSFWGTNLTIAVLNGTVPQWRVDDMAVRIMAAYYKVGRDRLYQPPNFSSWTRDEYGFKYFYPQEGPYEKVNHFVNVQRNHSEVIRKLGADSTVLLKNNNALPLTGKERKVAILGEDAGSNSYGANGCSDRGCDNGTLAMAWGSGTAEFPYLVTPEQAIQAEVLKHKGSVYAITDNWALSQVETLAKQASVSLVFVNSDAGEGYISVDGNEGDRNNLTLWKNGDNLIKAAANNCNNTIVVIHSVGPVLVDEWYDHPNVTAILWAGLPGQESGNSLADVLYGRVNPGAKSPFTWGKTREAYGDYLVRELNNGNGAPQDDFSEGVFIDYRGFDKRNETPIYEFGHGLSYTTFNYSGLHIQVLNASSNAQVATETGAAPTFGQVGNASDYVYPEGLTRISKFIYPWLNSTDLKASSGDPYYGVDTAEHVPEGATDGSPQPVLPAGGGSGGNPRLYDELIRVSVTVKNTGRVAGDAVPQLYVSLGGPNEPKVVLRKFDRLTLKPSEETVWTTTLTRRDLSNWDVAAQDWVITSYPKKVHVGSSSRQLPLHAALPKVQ
Bacterial saccharifying amylase, sequence (P00691 42-659): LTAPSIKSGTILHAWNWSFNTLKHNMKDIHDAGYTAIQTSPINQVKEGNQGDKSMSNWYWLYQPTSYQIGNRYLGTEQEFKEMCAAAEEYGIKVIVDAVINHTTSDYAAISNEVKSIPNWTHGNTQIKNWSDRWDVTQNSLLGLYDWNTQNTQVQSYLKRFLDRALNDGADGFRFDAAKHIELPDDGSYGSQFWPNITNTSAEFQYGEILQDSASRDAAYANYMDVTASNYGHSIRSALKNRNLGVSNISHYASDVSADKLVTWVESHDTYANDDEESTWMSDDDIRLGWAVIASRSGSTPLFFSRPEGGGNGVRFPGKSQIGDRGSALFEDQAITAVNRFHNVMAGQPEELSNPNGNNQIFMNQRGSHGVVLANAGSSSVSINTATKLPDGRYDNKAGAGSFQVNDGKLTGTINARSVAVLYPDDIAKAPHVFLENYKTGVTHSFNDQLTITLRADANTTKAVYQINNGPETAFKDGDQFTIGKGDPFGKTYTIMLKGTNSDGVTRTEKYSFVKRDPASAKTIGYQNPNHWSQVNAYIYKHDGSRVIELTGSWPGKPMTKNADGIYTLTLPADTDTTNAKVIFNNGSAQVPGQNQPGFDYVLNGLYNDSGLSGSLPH
T3 sequence (P53341 whole entry): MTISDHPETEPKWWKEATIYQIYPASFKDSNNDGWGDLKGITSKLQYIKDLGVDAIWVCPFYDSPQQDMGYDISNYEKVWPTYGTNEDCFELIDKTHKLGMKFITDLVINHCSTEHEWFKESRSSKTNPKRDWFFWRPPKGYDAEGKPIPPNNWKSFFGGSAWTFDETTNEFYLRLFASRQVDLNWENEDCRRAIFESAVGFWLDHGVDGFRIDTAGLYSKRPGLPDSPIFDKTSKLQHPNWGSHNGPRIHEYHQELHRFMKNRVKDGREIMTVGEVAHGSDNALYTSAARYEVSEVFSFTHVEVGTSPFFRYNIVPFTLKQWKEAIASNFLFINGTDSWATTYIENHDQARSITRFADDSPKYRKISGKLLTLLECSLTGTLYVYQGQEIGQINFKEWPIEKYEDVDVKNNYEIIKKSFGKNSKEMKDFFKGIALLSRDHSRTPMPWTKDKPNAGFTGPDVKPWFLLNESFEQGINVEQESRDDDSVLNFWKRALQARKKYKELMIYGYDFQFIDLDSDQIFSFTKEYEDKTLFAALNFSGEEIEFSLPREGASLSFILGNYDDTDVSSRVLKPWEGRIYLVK
T5 sequence (P10537 whole entry): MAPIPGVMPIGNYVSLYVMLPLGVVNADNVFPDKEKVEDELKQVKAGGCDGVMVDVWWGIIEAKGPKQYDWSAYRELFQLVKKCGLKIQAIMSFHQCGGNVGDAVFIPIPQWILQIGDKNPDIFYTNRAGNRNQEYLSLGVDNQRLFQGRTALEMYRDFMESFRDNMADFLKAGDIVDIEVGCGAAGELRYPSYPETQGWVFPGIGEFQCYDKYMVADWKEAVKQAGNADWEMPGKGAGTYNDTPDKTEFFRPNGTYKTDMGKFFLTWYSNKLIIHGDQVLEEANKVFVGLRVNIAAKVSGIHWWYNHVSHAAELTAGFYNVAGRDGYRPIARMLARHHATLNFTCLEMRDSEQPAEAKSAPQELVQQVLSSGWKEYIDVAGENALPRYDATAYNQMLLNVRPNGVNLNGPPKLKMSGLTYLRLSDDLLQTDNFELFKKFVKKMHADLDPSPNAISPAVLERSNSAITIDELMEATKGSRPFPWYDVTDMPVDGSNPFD

OC[C@H]1O[C@H](N=C2NC3C(O2)C(O)C(O)C3(O)CO)[C@H](O)[C@@H](O)[C@@H]1O (stereo partly drawn) [Trehalostatin]
Action (ID50) ([1]; enzyme 24 unit (nmol glucose/min), pH 5.5, 5 mM trehalase, measuring method A): ++ (ID50 ≤ 1.0 μg) | inhibitory effect against trehalase in insects ([1]; trehalase in insects, especially Aldrichina grahami, statement in words): effective inhibitory effect against trehalase in insects, especially in Aldrichina grahami, even at a very low concentration | Action (ID50) [2]: + (ID50 ≥ 1.0 μg) | Action (ID50) [3]: + (ID50 ≥ 1.0 μg) | Action (ID50) (Trehalase (swine kidney)): + (ID50 ≥ 1.0 μg) | Action (ID50) (α-glycosidase (yeast)): + (ID50 ≥ 1.0 μg) | Action (ID50) [4]: + (ID50 ≥ 1.0 μg) | Action (ID50) (Gluco amylase (almond)): - | Action (ID50) [5]: - | Action (ID50) (exo-β-1,3-glucanase): - | Action (ID50) [6]: - | Action (ID50) [7]: - | Action (ID50) [8]: - | Action (ID50) (β-amylase (sweet potato)): - | Action (ID50) [9]: - | Action (ID50) (Taka-amylase A (yeast)): - | Action (ID50) (Taka-amylase A): - | Action (ID50) [10]: - | Action (ID50) (Isoamylase): - | Solubility ([11]; in hexane, benzene, ethers and petroleum ether): hardly or only slightly soluble | Solubility ([11]; in water): soluble in water
